Patent US20170150715A1, “METHODS OF ELIMINATING SPORES” (Lifeclean International AB, priority 2013, published 2017)
Marks after values point to notes of the source that are not given here.

Assays:
[1] = test system: spores of C Difficile, Ribotype 25; test: Elimination of spores of C Difficile on glass surfaces, types and combinations of surface active agents (Example 6); assay type: cell-based, Clostridium difficile
Procedure: Example 6 was designed in order to evaluate different types and combinations of surface active agents in combination with chlorine oxide for elimination of spores of C Difficile on surfaces. The following test solutions were used:
The solutions were prepared in accordance with Examples 2, 2A and 3. RD1 and RD2 signify the anionic surfactants of Example 3 branded DOWFAX 3B2 and DOWFAX 8390, respectively. RD3 and RD4 signify the cationic surfactants of Example 2A branded AO-8 Macat and AO-12 Macat.
A spore suspension was generated and counted in accordance with Example 4:
Ribotype 25; 8.0×10^9 spores/mL (8.0×10^8 spores on the glass surface) approximately 80% spores in the suspension.
(§1) The glass surfaces were prepared by transferring 0.1 ml of the spore solution to microscopy slides. After the suspension has dried, 0.2 ml of the test solutions were added to the slides for application times between 1 and 10 minutes. Subsequently, the glass surfaces were each placed in a 500 ml glass flask with 250 ml 0.85% NaCl solution and rotated at 200 rpm for 20 minutes.

[2] = test system: C difficile spores PCR Ribotype 023; test: Elimination of spores of Clostridium difficile on surfaces (Example 4; glass, brass, copper); assay type: cell-based; settings: 10 minutes exposure; for Culture 6 PY-broth undiluted / Culture 7 PY-broth 10^−2 / Culture 8 PY-broth 10^−4 / Culture 9 PY-broth 10^−6: cotton tip smear of surface; for total amount of CFUs in the flasks (within brackets): surviving spores displaced from the surface; for amount of CFU in the undiluted PY-broth (within brackets): surviving spores remaining attached to the surface
Excerpt: C difficile spores PCR Ribotype 023 (ECDC/Cardiff nomenclature) were transferred from a frozen sample to plates with Fastidious Anaerobe Agar (FAAAP), cultured under anaerobe conditions for 2 days. The cultures were transferred to ambient conditions and colonies of C difficile were admitted to sporulate. The spores were harvested and dissolved in sterile water (reverse osmosis (RO)), subjected to alcohol shock (70%), washed, centrifugated and collected as a suspension of spores.
In the preparation 0.1 ml of the spore suspension was transferred to microscopy slides, sterile plates of brass or copper. When the spore suspensions have dried, 0.2 ml of the following solutions were added:
After 10 minutes exposure to the solutions, the Glasses and the plates were each transferred to a 500 ml Glass flask to dilute and interrupt disinfection. The flasks were rotated at 200 rpm for 20 minutes.
From each of the rotated flasks 0.1 ml was transferred to agar plates (Culture 1). The samples were diluted in two steps 1/10 in tubes. From each tube, 0.1 ml was transferred to agar plates (Cultures 2 and 3).
The solutions in the flasks were filtered and rinsed with 3×100 ml buffered peptone water (PENAL). The filtrations were performed in two steps. At first, 1 ml was filtered, then remaining volume of solution in the flasks (approx. 249 ml). The filters were cultured on agar plates (Cultures 4 and 5).
At two times, 40 ml samples were taken from the filtrates. These were centrifugated and the supernatant was discarded, the pellet re-suspended in 0.1 ml 0.85% NaCl solution. The entire volume was transferred to agar plates.
In order to assess if viable spore remain on the surfaces of Glasses and the, they were smeared with moist cotton tip (all smeared in accordance with a “double-S” shape). The tip was cultured in 2 ml pre-reduced PY-broth which was diluted 1/10 in several repeated steps and cultured on agar plates (0.2 ml/plate), (Cultures 6 to 9)
All culture plates were cultured under anaerobe conditions at 36° C. for 2 days.

[3] = test system: spore suspension Ribotype 25; test: Elimination of spores on glass surfaces, different contact times (Example 7); assay type: cell-based, Clostridium difficile; settings: glass surface, contact time 10 min
Procedure: Example 7 outlines a test with different contact for chlorine dioxide solution according to the invention. A spore suspension was generated and counted in accordance with Example 4:
Ribotype 25; 9.6×10^8 spores/mL (9.6×10^7 spores on the glass surface) approximately 80% spores in the suspension.
as §1
The test solution comprising chlorine dioxide was prepared in accordance with Example 2B, comprising 1600 ppm chlorine dioxide together with 0.2% (v/v) cationic surfactant comprising equal amounts of octyl dimethylamine oxide and lauryl dimethylamine oxide). After rotation, the contents of the flasks were treated and cultured with procedures and agar plates in accordance with Example 4.

[4] = test system: spore suspension Ribotype 25; test: Elimination of spores on glass surfaces, different concentrations of surfactants (Example 8); assay type: cell-based, Clostridium difficile; settings: glass surface, application time 2 minutes
Procedure: Example 9 outlines a test with chlorine dioxide solutions of 800 and 1600 ppm having different concentration of surfactants made in accordance with Example 2A. A spore suspension was generated and counted in accordance with Example 4:
Ribotype 25; 8.0×10^8 spores/mL (8.0×10^7 spores on the glass surface) approximately 80% spores in the suspension.
The glass surfaces were prepared by transferring 0.1 ml of the spore solution to microscopy slides. After the suspension has dried, 0.2 ml of the test solutions were added to the slides for an application time of 2 minutes. Subsequently, the glass surfaces were each placed in a 500 ml glass flask with 250 ml 0.85% NaCl solution and rotated at 200 rpm for 20 minutes.
After rotation, the contents of the flasks were treated and cultured with procedures and agar plates in accordance with Example 4.

[5] = 8.0×10^8 spores on the glass surface
[6] = spores survived not detached from the surface
[7] = surviving spores detached from the surface

Q: Which “0.1 mL Diluted 10^−1” value [1, 5] does the source give for `CCO` [70% Ethanol, Ethanol] here?
A: overgrown

Q: And the “0.1 mL Diluted 10^−2” value [1, 5]?
A: 240 CFUs

Q: What about the “0.1 mL From bottle” value [1, 5] of the same molecule?
A: overgrown

Q: And the “Filtration 1 mL” value [1, 5]?
A: overgrown

Q: And the “PY-broth Diluted 10^−2” value [1, 5]?
A: overgrown

Q: What about the “PY-broth Diluted 10^−4” value [1, 5] of the same molecule?
A: 86 CFUs

Q: And the “PY-broth Undiluted” value [1, 5]?
A: overgrown

Q: What about the “number of CFUs in the undiluted PY-broth (brackets)” value [1, 6] of the same molecule?
A: (8.6 × 10^6) CFUs

Q: What about the “number of CFUs in the flask (brackets)” value [1, 7] of the same molecule?
A: (6.0 × 10^7) CFUs

Q: And the “Culture 1 0.1 mL From bottle” value ([2]; Brass)?
A: overgrown

Q: What about the “Culture 2 Dilution 10^−1” value ([2]; Brass) of the same molecule?
A: 55 CFU

Q: And the “Culture 3 Dilution 10^−2” value ([2]; Brass)?
A: 5 CFU

Q: What about the “Culture 4 Filtration 1 mL” value ([2]; Brass) of the same molecule?
A: overgrown

Q: What about the “Culture 5 Filtration 249 mL” value ([2]; Brass) of the same molecule?
A: overgrown

Q: And the “Culture 6 PY-broth undiluted” value ([2]; Brass)?
A: overgrown

Q: What about the “Culture 7 PY-broth 10^−2” value ([2]; Brass) of the same molecule?
A: overgrown

Q: And the “Culture 8 PY-broth 10^−4” value ([2]; Brass)?
A: 74 CFU

Q: And the “Culture 9 PY-broth 10^−6” value ([2]; Brass)?
A: 0 CFU

Q: And the “total amount of CFUs in the flasks (within brackets)” value (“total amount of CFUs in the flasks” below) ([2]; Brass)?
A: (1.4 × 10^6) CFU

Q: And the “amount of CFU in the undiluted PY-broth (within brackets)” value (from here on “amount of CFU in the undiluted PY-broth”) ([2]; Brass)?
A: (7.4 × 10^6) CFU

Q: And the “Culture 1 0.1 mL From bottle” value ([2]; Copper)?
A: 429 CFU

Q: What about the “Culture 2 Dilution 10^−1” value ([2]; Copper) of the same molecule?
A: 40 CFU

Q: What about the “Culture 3 Dilution 10^−2” value ([2]; Copper) of the same molecule?
A: 1 CFU

Q: And the “Culture 4 Filtration 1 mL” value ([2]; Copper)?
A: overgrown

Q: What about the “Culture 5 Filtration 249 mL” value ([2]; Copper) of the same molecule?
A: overgrown

Q: What about the “Culture 6 PY-broth undiluted” value ([2]; Copper) of the same molecule?
A: overgrown

Q: And the “Culture 7 PY-broth 10^−2” value ([2]; Copper)?
A: overgrown

Q: What about the “Culture 8 PY-broth 10^−4” value ([2]; Copper) of the same molecule?
A: 79 CFU

Q: What about the “Culture 9 PY-broth 10^−6” value ([2]; Copper) of the same molecule?
A: 0 CFU

Q: What about the “total amount of CFUs in the flasks” value ([2]; Copper) of the same molecule?
A: (1.0 × 10^6) CFU

Q: What about the “amount of CFU in the undiluted PY-broth” value ([2]; Copper) of the same molecule?
A: (7.9 × 10^6) CFU

Q: And the “Culture 1 0.1 mL From bottle” value ([2]; Glass)?
A: overgrown

Q: And the “Culture 2 Dilution 10^−1” value ([2]; Glass)?
A: 517 CFU

Q: And the “Culture 3 Dilution 10^−2” value ([2]; Glass)?
A: 46 CFU

Q: And the “Culture 4 Filtration 1 mL” value ([2]; Glass)?
A: overgrown

Q: What about the “Culture 5 Filtration 249 mL” value ([2]; Glass) of the same molecule?
A: overgrown

Q: What about the “Culture 6 PY-broth undiluted” value ([2]; Glass) of the same molecule?
A: overgrown

Q: What about the “Culture 7 PY-broth 10^−2” value ([2]; Glass) of the same molecule?
A: overgrown

Q: What about the “Culture 8 PY-broth 10^−4” value ([2]; Glass) of the same molecule?
A: 39 CFU

Q: What about the “Culture 9 PY-broth 10^−6” value ([2]; Glass) of the same molecule?
A: 1 CFU

Q: And the “total amount of CFUs in the flasks” value ([2]; Glass)?
A: (1.2 × 10^7) CFU

Q: And the “amount of CFU in the undiluted PY-broth” value ([2]; Glass)?
A: (3.9 × 10^6) CFU

Q: What about the “Number cfu Filtration 249 mL” value [3] of the same molecule?
A: overgrown

Q: What about the “Number cfu × 10 PY-broth Undiluted” value [3] of the same molecule?
A: overgrown

Q: What about the “Number cfu × 10^3 PY-broth Diluted 10^−2” value [3] of the same molecule?
A: overgrown

Q: And the “Number cfu × 10^5 PY-broth Diluted 10^−4” value [3]?
A: 67 cfu

Q: And the “Number cfu × 10 × 250 0.1 mL From bottle” value [3]?
A: overgrown

Q: And the “Number cfu × 100 × 250 0.1 mL Diluted 10^−1” value [3]?
A: overgrown

Q: And the “Number cfu × 250 Filtration 1 mL” value [3]?
A: overgrown

Q: And the “Number cfu × 1000 × 250 0.1 mL Diluted 10^−2” value [3]?
A: 103 cfu

Q: What about the “number of CFUs in the undiluted PY-broth (brackets)” value [3, 6] of the same molecule?
A: (6.7 × 10^6) CFUs

Q: And the “number of CFUs in the flask (brackets)” value [3, 7]?
A: (2.6 × 10^7) CFUs

Q: What about the “Number cfu × 100 × 250 0.1 mL Diluted 10^−2” value ([4]; head lines shifted, by Table 4 layout: 0.1 mL Diluted 10^−1) of the same molecule?
A: overgrown

Q: What about the “Number cfu × 1000 × 250 PY-broth Undiluted” value ([4]; head lines shifted, by Table 4 layout: 0.1 mL Diluted 10^−2) of the same molecule?
A: 81 cfu

Q: And the “Number cfu × 10 × 250 0.1 mL Diluted 10^−1” value ([4]; head lines shifted, by Table 4 layout: 0.1 mL From bottle)?
A: overgrown

Q: What about the “Number cfu × 250 0.1 mL From bottle” value ([4]; head lines shifted, by Table 4 layout: Filtration 1 mL) of the same molecule?
A: overgrown

Q: And the “Number cfu Filtration 1 mL” value ([4]; head lines shifted, by Table 4 layout: Filtration 249 mL)?
A: overgrown

Q: What about the “Number cfu × 10^3 PY-broth Diluted 10^−4” value ([4]; head lines shifted, by Table 4 layout: PY-broth Diluted 10^−2) of the same molecule?
A: overgrown

Q: What about the “Number cfu × 10^5 Filtration 249 mL” value ([4]; head lines shifted, by Table 4 layout: PY-broth Diluted 10^−4) of the same molecule?
A: 28 cfu

Q: And the “Number cfu × 10 PY-broth Diluted 10^−2” value ([4]; head lines shifted, by Table 4 layout: PY-broth Undiluted)?
A: overgrown

Q: And the “number of CFUs in the undiluted PY-broth (brackets)” value [4, 6]?
A: (2.8 × 10^6) CFUs

Q: And the “number of CFUs in the flask (brackets)” value [4, 7]?
A: (2.0 × 10^7) CFUs
